Experimental data published in PubChem BioAssay AID2060890 (Molecular Pharmacology Branch, DTP, NCI, 2025).

Tested on: LG0703-F948-PDC complex spheroid viability
Test: Anticancer human tumor LG0703-F948-PDC patient-derived lung adenocarcinoma cell line growth inhibition [RAS]
Conditions: for IC50: curve of first compound; for viability, T/C: stronger effect = lower value; active means viability on the fitted dose curve at most 10% of control; inactive means the rest
Outline: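 Tumour cells grown as complex spheroids with HUVEC endothelial cells and mesenchymal stem cells, treated with RAS pathway inhibitor combinations. Each agent spans half-log steps from near clinical Cmax, or 10 microM where Cmax is unknown.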
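Further: spheroids exposed to agents for 7 days.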
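Wherever viability, T/C is given: 100% = DMSO vehicle wells.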

C=CC(=O)Nc1cc(Nc2nccc(-c3cn(C)c4ccccc34)n2)c(OC)cc1N(C)CCN(C)C + C=CC(=O)N1CCN(c2nc(OCC3CCCN3C)nc3c(F)c(-c4nc(N)cc(C)c4C(F)(F)F)c(Cl)cc23)C(C)C1
inactive: viability, T/C (second compound 0.00316 µM, first compound 0.00316 µM) 75.2% | viability, T/C (second compound 0.00316 µM, first compound 0.01 µM) 40.8% | viability, T/C (second compound 0.00316 µM, first compound 0.0316 µM) 16.2% | viability, T/C (second compound 0.00316 µM, first compound 0.1 µM) 14.6% | viability, T/C (second compound 0.00316 µM, first compound 0.316 µM) 10.9% | viability, T/C (second compound 0.00316 µM, first compound 1 µM) 8.91% | viability, T/C (second compound 0.01 µM, first compound 0.00316 µM) 79.8% | viability, T/C (second compound 0.01 µM, first compound 0.01 µM) 42.7% | viability, T/C (second compound 0.01 µM, first compound 0.0316 µM) 16.9% | viability, T/C (second compound 0.0316 µM, first compound 0.00316 µM) 79.7% | viability, T/C (second compound 0.0316 µM, first compound 0.01 µM) 45% | viability, T/C (second compound 0.0316 µM, first compound 0.0316 µM) 16.2% | viability, T/C (second compound 0.1 µM, first compound 0.00316 µM) 86.3% | viability, T/C (second compound 0.1 µM, first compound 0.01 µM) 43% | viability, T/C (second compound 0.1 µM, first compound 0.0316 µM) 14.8% | viability, T/C (second compound 0.316 µM, first compound 0.00316 µM) 79.2% | viability, T/C (second compound 0.316 µM, first compound 0.01 µM) 42.7% | viability, T/C (second compound 0.316 µM, first compound 0.0316 µM) 17.4% | viability, T/C (second compound 1 µM, first compound 0.00316 µM) 79.5% | viability, T/C (second compound 1 µM, first compound 0.01 µM) 44.5% | viability, T/C (second compound 1 µM, first compound 0.0316 µM) 15.7%
7.32 nM: IC50 (second compound 0.00316 µM)
8.46 nM: IC50 (second compound 0.0316 µM)
7.93 nM: IC50 (second compound 0.316 µM)
7.97 nM: IC50 (second compound 0.01 µM)
8.29 nM: IC50 (second compound 0.1 µM)
active: viability, T/C (second compound 0.01 µM, first compound 0.1 µM) 9.65% | viability, T/C (second compound 0.01 µM, first compound 0.316 µM) 8.46% | viability, T/C (second compound 0.01 µM, first compound 1 µM) 7.04% | viability, T/C (second compound 0.0316 µM, first compound 0.1 µM) 10.3% | viability, T/C (second compound 0.0316 µM, first compound 0.316 µM) 10.2% | viability, T/C (second compound 0.0316 µM, first compound 1 µM) 6.08% | viability, T/C (second compound 0.1 µM, first compound 0.1 µM) 10.8% | viability, T/C (second compound 0.1 µM, first compound 0.316 µM) 9.54% | viability, T/C (second compound 0.1 µM, first compound 1 µM) 6.22% | viability, T/C (second compound 0.316 µM, first compound 0.1 µM) 9.84% | viability, T/C (second compound 0.316 µM, first compound 0.316 µM) 9.21% | viability, T/C (second compound 0.316 µM, first compound 1 µM) 6.05% | viability, T/C (second compound 1 µM, first compound 0.1 µM) 10.2% | viability, T/C (second compound 1 µM, first compound 0.316 µM) 9.74% | viability, T/C (second compound 1 µM, first compound 1 µM) 5.04%
8.3 nM: IC50 (second compound 1 µM)

CC(Nc1ccc2c(c1)OCCn1cc(N3C(=O)OCC3C(F)F)nc1-2)C(N)=O (centres undefined) + CCn1c(-c2cccnc2C(C)OC)c2c3cc(ccc31)N1CCOC(CC(NC(=O)C(C(C)C)N(C)C(=O)C3(F)CCN(C(=O)C#CC(C)(C)N(C)C)CC3)C(=O)N3CCCC(N3)C(=O)OCC(C)(C)C2)C1
388 nM: IC50 (second compound 0.0949 µM)
1210 nM: IC50 (second compound 0.03 µM)
inactive: viability, T/C (second compound 0.000949 µM, first compound 0.0316 µM) 101% | viability, T/C (second compound 0.000949 µM, first compound 0.1 µM) 82.3% | viability, T/C (second compound 0.000949 µM, first compound 0.316 µM) 89.8% | viability, T/C (second compound 0.000949 µM, first compound 1 µM) 63.6% | viability, T/C (second compound 0.000949 µM, first compound 3.16 µM) 46.5% | viability, T/C (second compound 0.000949 µM, first compound 10 µM) 24.1% | viability, T/C (second compound 0.003 µM, first compound 0.0316 µM) 102% | viability, T/C (second compound 0.003 µM, first compound 0.1 µM) 86.6% | viability, T/C (second compound 0.003 µM, first compound 0.316 µM) 72.8% | viability, T/C (second compound 0.003 µM, first compound 1 µM) 61.8% | viability, T/C (second compound 0.003 µM, first compound 3.16 µM) 45.4% | viability, T/C (second compound 0.003 µM, first compound 10 µM) 32.6% | viability, T/C (second compound 0.00949 µM, first compound 0.0316 µM) 102% | viability, T/C (second compound 0.00949 µM, first compound 0.1 µM) 83.2% | viability, T/C (second compound 0.00949 µM, first compound 0.316 µM) 77.8% | viability, T/C (second compound 0.00949 µM, first compound 1 µM) 54.6% | viability, T/C (second compound 0.00949 µM, first compound 3.16 µM) 52.7% | viability, T/C (second compound 0.00949 µM, first compound 10 µM) 25.4% | viability, T/C (second compound 0.03 µM, first compound 0.0316 µM) 100% | viability, T/C (second compound 0.03 µM, first compound 0.1 µM) 81.7% | viability, T/C (second compound 0.03 µM, first compound 0.316 µM) 60.8% | viability, T/C (second compound 0.03 µM, first compound 1 µM) 56.5% | viability, T/C (second compound 0.03 µM, first compound 3.16 µM) 41.5% | viability, T/C (second compound 0.03 µM, first compound 10 µM) 23.3% | viability, T/C (second compound 0.0949 µM, first compound 0.0316 µM) 74.1% | viability, T/C (second compound 0.0949 µM, first compound 0.1 µM) 64.8% | viability, T/C (second compound 0.0949 µM, first compound 0.316 µM) 54.3% | viability, T/C (second compound 0.0949 µM, first compound 1 µM) 35.2% | viability, T/C (second compound 0.0949 µM, first compound 3.16 µM) 31.7% | viability, T/C (second compound 0.0949 µM, first compound 10 µM) 19.9% | viability, T/C (second compound 0.3 µM, first compound 0.0316 µM) 41.6% | viability, T/C (second compound 0.3 µM, first compound 0.1 µM) 32.1% | viability, T/C (second compound 0.3 µM, first compound 0.316 µM) 24.8% | viability, T/C (second compound 0.3 µM, first compound 1 µM) 18.8% | viability, T/C (second compound 0.3 µM, first compound 3.16 µM) 15.4% | viability, T/C (second compound 0.3 µM, first compound 10 µM) 10.1%
< 31.6 nM: IC50 (second compound 0.3 µM)
2140 nM: IC50 (second compound 0.00949 µM)
2580 nM: IC50 (second compound 0.000949 µM)
2260 nM: IC50 (second compound 0.003 µM)
